Source: ChEMBL document CHEMBL3046852, “Synthesis and analgesic activity of new pyridine-based heterocyclic derivatives” (2012)
Calls of active or inactive are those of the source. The rule behind the calls is not given here.

How the values were obtained:
Mus musculus [1] = assay: Analgesic activity in Mus musculus albino (mouse) assessed as latency time at 25 mg/kg, ip after 30 min by hot-plate test; type: functional; conditions: route intraperitoneal
Mus musculus [2] = assay: Analgesic activity in Mus musculus albino (mouse) assessed as latency time at 25 mg/kg, ip after 30 min by tail-flick test; type: functional; conditions: route intraperitoneal
Mus musculus [3] = assay: Analgesic activity in Mus musculus albino (mouse) assessed as latency time at 17.5 mg/kg, ip after 30 min by hot-plate test; type: functional; conditions: route intraperitoneal
Mus musculus [4] = assay: Analgesic activity in Mus musculus albino (mouse) assessed as latency time at 17.5 mg/kg, ip after 30 min by tail-flick test; type: functional; conditions: route intraperitoneal
Mus musculus [5] = assay: Analgesic activity in Mus musculus albino (mouse) assessed as inhibition of formalin-induced paw licking behavior in both phases of formalin response at 25 mg/kg, ip administered 30 min before formalin challenge; type: functional, organism-based; design: dose 25 mg/kg
Mus musculus [6] = assay: Analgesic activity in Mus musculus albino (mouse) assessed as latency time at 25 mg/kg, ip after 30 min in presence of 2 mg/kg, ip of mecamylamine by tail-flick test; type: functional

With `Clc1ccccc1-c1nnc(-c2cccnc2)[nH]1` as the compound, how does the Time (Mus musculus [1]) read?
Its Time is 8.55 s.

And the Time (Mus musculus [2])?
Its Time is 5.53 s.

With `CC(=O)N1N=C(c2ccncc2)OC1c1ccccc1` (stereo not drawn) as the compound, how does the Time (Mus musculus [1]) read?
Its Time is 7.78 s.

What about the Time (Mus musculus [2]) of the same compound?
The Time was 6.03 s.

`Cc1cc(=O)[nH]n1C(=O)c1ccncc1` was tested. Which Time (Mus musculus [1]) did it give?
The Time was 7.51 s.

What about the Time (Mus musculus [2]) of the same compound?
The Time was 5.7 s.

With `CC(C)=CCN1CC[C@@]2(C)c3cc(O)ccc3C[C@@H]1[C@@H]2C` (relative stereo) as the compound, how does the Time (Mus musculus [3]) read?
The Time was 19.89 s.

And the Time (Mus musculus [4])?
Its Time is 12.84 s.

How did the Time (Mus musculus [1]) turn out when `O=[N+]([O-])c1ccccc1-c1nnc(-c2cccnc2)[nH]1` was run?
The Time was 8.47 s.

And the Time (Mus musculus [2])?
Its Time is 6.15 s.

Which Activity (Mus musculus [5]) does the source give for `Cc1n[nH]c(-c2ccncc2)n1` here?
The Activity was “Active”.

And the Time (Mus musculus [1])?
The Time was 9.49 s.

And the Time (Mus musculus [6])?
The Time was 5.22 s.

What about the Time (Mus musculus [2]) of the same compound?
The Time was 7.62 s.

What does the source list for `Cc1cc(C)n(C(=O)c2cccnc2)n1`?
Activity (Mus musculus [5]): Active; Time (Mus musculus [1]): 8.3 s; Time (Mus musculus [6]): 5.18 s; Time (Mus musculus [2]): 7.69 s

For `CC(=O)N1N=C(c2ccncc2)OC1C` (stereo not drawn), which Activity (Mus musculus [5]) is on record?
The Activity was “Active”.

And the Time (Mus musculus [1])?
Its Time is 12.93 s.

What about the Time (Mus musculus [6]) of the same compound?
The Time was 5.14 s.

And the Time (Mus musculus [2])?
The Time was 11.03 s.

For `Cc1cc(C)n(C(=O)c2ccncc2)n1`, which Time (Mus musculus [1]) is on record?
Its Time is 8.11 s.

What about the Time (Mus musculus [2]) of the same compound?
Its Time is 6.4 s.

Which Time (Mus musculus [1]) does the source give for `c1ccc(-c2n[nH]c(-c3cccnc3)n2)cc1` here?
The Time was 7.5 s.

And the Time (Mus musculus [2])?
The Time was 4.73 s.

For `CC(=O)N1N=C(c2cccnc2)OC1c1ccccc1` (stereo not drawn), which Activity (Mus musculus [5]) is on record?
Its Activity is “Active”.

And the Time (Mus musculus [1])?
Its Time is 10.03 s.

What about the Time (Mus musculus [6]) of the same compound?
Its Time is 5.13 s.

And the Time (Mus musculus [2])?
The Time was 8.44 s.

What does the source list for `Cc1cc(=O)[nH]n1C(=O)c1cccnc1`?
Time (Mus musculus [1]): 7.54 s; Time (Mus musculus [2]): 5.26 s

For `Cc1nnc(-c2cccnc2)[nH]1`, which Activity (Mus musculus [5]) is on record?
Its Activity is “Active”.

And the Time (Mus musculus [1])?
Its Time is 9.65 s.

What about the Time (Mus musculus [6]) of the same compound?
Its Time is 5.17 s.

And the Time (Mus musculus [2])?
The Time was 7.99 s.

For `O=[N+]([O-])c1ccccc1-c1nnc(-c2ccncc2)[nH]1`, which Activity (Mus musculus [5]) is on record?
Its Activity is “Active”.

And the Time (Mus musculus [1])?
Its Time is 15.1 s.

And the Time (Mus musculus [6])?
Its Time is 5.23 s.

What about the Time (Mus musculus [2]) of the same compound?
The Time was 11.8 s.

Which results are given for `CC(=O)N1N=C(c2cccnc2)OC1c1ccccc1[N+](=O)[O-]` (stereo not drawn)?
Time (Mus musculus [1]): 7.29 s; Time (Mus musculus [2]): 4.93 s

For `c1ccc(-c2nnc(-c3ccncc3)[nH]2)cc1`, which Time (Mus musculus [1]) is on record?
Its Time is 7.81 s.

And the Time (Mus musculus [2])?
Its Time is 5.33 s.

With `Clc1ccccc1-c1nnc(-c2ccncc2)[nH]1` as the compound, how does the Activity (Mus musculus [5]) read?
Its Activity is “Active”.

What about the Time (Mus musculus [1]) of the same compound?
The Time was 13.12 s.

And the Time (Mus musculus [6])?
Its Time is 5.12 s.

And the Time (Mus musculus [2])?
The Time was 11.2 s.

How did the Activity (Mus musculus [5]) turn out when `CC(=O)N1N=C(c2cccnc2)OC1C` (stereo not drawn) was run?
Its Activity is “Active”.

What about the Time (Mus musculus [1]) of the same compound?
Its Time is 10.03 s.

And the Time (Mus musculus [6])?
Its Time is 5.14 s.

What about the Time (Mus musculus [2]) of the same compound?
Its Time is 8.95 s.

`CC(=O)N1N=C(c2ccncc2)OC1c1ccccc1Cl` (stereo not drawn) was tested. Which Time (Mus musculus [1]) did it give?
The Time was 7.81 s.

And the Time (Mus musculus [2])?
The Time was 6.03 s.

How did the Time (Mus musculus [1]) turn out when `CC(=O)N1N=C(c2cccnc2)OC1c1ccccc1Cl` (stereo not drawn) was run?
The Time was 7.77 s.

What about the Time (Mus musculus [2]) of the same compound?
The Time was 5.16 s.

Which Time (Mus musculus [1]) does the source give for `CC(=O)N1N=C(c2ccncc2)OC1c1ccccc1[N+](=O)[O-]` (stereo not drawn) here?
Its Time is 7.48 s.

What about the Time (Mus musculus [2]) of the same compound?
The Time was 4.76 s.
